According to paper PMC4349624, “In vitro synergistic effect of fluoroquinolone analogues in combination with artemisinin against Plasmodium falciparum; their antiplasmodial action in rodent malaria model” (Malaria Journal, 2015):

Key:
[1] = test system: Plasmodium falciparum 3D7 strain; assay: antiplasmodial interaction assay, fixed-ratio combination isobologram method with artemisinin; format: cell-based; conditions: for Drug B Mean FIC50 ± SE: n = 3
Experimental: Stock culture of malaria parasite P. falciparum 3D7 strain (chloroquine sensitive) was continuously maintained in vitro using a CO2 incubator under low-oxygen concentration (3%) and high carbon dioxide atmosphere (4%) along with nitrogen (93%), incubated at a temperature of 37°C. The parasites were maintained on O^+ human red blood cells suspended in a complete culture medium. Each litre of RPMI-1640 aqueous culture medium was prepared with 10.4 g of powdered RPMI-1640 (with glutamine but without sodium bicarbonate), 5.94 g of HEPES buffer, 1 g of dextrose and 40 mg of gentamicin. Complete medium was constituted just before use by adding sterile 5% sodium bicarbonate at the rate of 4 ml per 96 ml, and supplemented with 10% (v/v) pooled O^+ human serum. Infected erythrocytes were suspended in this culture media initiated at a haematocrit value of 5% and parasitemia was kept between 2 and 4% with sub-culturing done beyond 5%. Medium was changed once a day and percentage parasitemia was monitored using Giemsa stained slides.
Artemisinin (Sigma Aldrich, USA) was prepared in DMSO to get the stock solution of 1 mg/ml strength. Compounds 10, 12 and 18 were synthesized according to the procedure described by Dixit et al. and each compound was made to strength of 1 mg/ml stock solution in DMSO. The stock solutions were diluted on the day of experiment to get the desired concentrations for each compound. The highest amount of DMSO in diluted concentrations was 0.125%, and had no effect on parasite growth.
In each combination assay, two compounds (Compound A, artemisinin and Compound B, a fluoroquinolone derivative or norfloxacin) were combined in four fixed ratios (4:1, 3:2, 2:3, and 1:4).
Compound dilutions of each combination solution were made in sterile, flat-bottomed, 96-well tissue culture plates as described by Fivelman et al.. Six times two-fold serial dilution was done for each combination in triplicate. Each well contained a total volume of 200 μl of complete culture medium with or without compound and pre-synchronized infected red blood cells (1% parasitemia at 2.5% haematocrit). Control cultures (without compound) were maintained on the same plate in triplicate. Two 96-well plates (for six combinations) were used for each combination experiment. The plates were stacked in a CO2 incubator and incubated at 37°C for 48 hours.
After 48-hour incubation, thin blood smear slides were prepared, air dried, methanol fixed, and stained in Giemsa solution for 40 min. After staining, slides were removed from coupling jar, washed in running tap water and air dried. The Giemsa-stained slides were examined for counting the number of parasites in random adjacent microscopic fields, equivalent to about 4,000 erythrocytes at 1,000 × magnification. Per cent parasitemia was calculated. Reproducibility of counts was checked by two other readers to maintain the quality control.
For each combination assay, IC50 was calculated from two sets of concentration response graphs, each containing compound alone curve and four combination curves.
ƩFIC <1 represents synergism, ƩFIC > = 1 and <2 represents additive interaction, ƩFIC > = 2 and <4 represents slight antagonism while ƩFIC > = 4 represents marked antagonism.

[2] = test system: 3D7 strain of P. falciparum; conditions: fluoroquinolones in clinical use, reported values; read-out: reported IC50 against 3D7 strain of P. falciparum in vitro; cited from earlier work
[3] = artemisinin (A) : drug B ratio 1:4
[4] = artemisinin (A) : drug B ratio 2:3
[5] = artemisinin (A) : drug B ratio 3:2
[6] = artemisinin (A) : drug B ratio 4:1

CCn1cc(C(=O)O)c(=O)c2cc(F)c(N3CCNCC3)cc21 [Norfloxacin, norfloxacin, reference compound]
interaction (class from Σ FICs) [1, 3]: SYN (ƩFIC <1 represents synergism)
Σ FICs [1, 3]: 0.74
interaction (class from Σ FICs) [1, 4]: ADD (ƩFIC > = 1 and <2 represents additive interaction)
Σ FICs [1, 4]: 1.53
interaction (class from Σ FICs) [1, 5]: SYN (ƩFIC <1 represents synergism)
Σ FICs [1, 5]: 0.81
interaction (class from Σ FICs) [1, 6]: ADD (ƩFIC > = 1 and <2 represents additive interaction)
Σ FICs [1, 6]: 1.36
Mean ƩFIC ± SD ([1]; combination with artemisinin, over the fixed-ratio combinations): 1.11 ± 0.394
antiplasmodial interaction with artemisinin (in words) ([1]; four fixed-ratio combinations, in vitro): synergistic interaction in two combinations, while additive in the remaining two
Drug B Mean FIC50 ± SE ([1]; ratio A:B 0:5, drug B alone): 0.98 ± 0.04
Drug B Mean FIC50 ± SE ([1]; ratio A:B 1:4, combined with artemisinin (drug A)): 0.60 ± 0.02
Drug B Mean FIC50 ± SE ([1]; ratio A:B 2:3, combined with artemisinin (drug A)): 0.87 ± 0.03
Drug B Mean FIC50 ± SE ([1]; ratio A:B 3:2, combined with artemisinin (drug A)): 0.52 ± 0.04
Drug B Mean FIC50 ± SE ([1]; ratio A:B 4:1, combined with artemisinin (drug A)): 0.45 ± 0.02
IC50 [2]: 53.9 µM

NC1CCN(c2c(F)cc3c(=O)c(C(=O)O)cn(C4CC4)c3c2Cl)C1 (stereo not shown) [clinafloxacin, reference compound]
IC50 [2]: 37.5 µM

CCn1cc(C(=O)O)c(=O)c2cc(F)c(N3CCNCC3)nc21 [enoxacin, reference compound]
IC50 [2]: 121 µM

CC1COc2c(N3CCN(C)CC3)c(F)cc3c(=O)c(C(=O)O)cn1c23 (stereo not shown) [ofloxacin, reference compound]
IC50 [2]: 152 µM
